Our source for the Activity and IC50 values is ChEMBL document CHEMBL3804773, “Straightforward synthesis of a novel ring-fused pyrazole-lactam and in vitro cytotoxic activity on cancer cell lines” (Eur J Med Chem, 2016).

The subject of test [1] is U-87MG ATCC. As to the kind of experiment: (§1) Cytotoxicity against human U87MG cells assessed as reduction in cell viability after 24 hrs by Z2 coulter counter method. The format is functional, cell-based. The note with it: TDE = time-dependent effect.
Test [2] is described as follows: (§2) Cytotoxicity against human U87MG cells assessed as reduction in cell viability after 48 hrs by Z2 coulter counter method. The note with it: U-87 MG. In kind it is functional, cell-based, U-87MG ATCC.
Test [3] concerns U-87MG ATCC. The test is described as §2. The format is functional, cell-based. Conditions: TDE = time-dependent effect.
Test [4] can be described thus: (§3) Cytotoxicity against human U87MG cells assessed as reduction in cell viability after 72 hrs by Z2 coulter counter method. The format is functional, cell-based, U-87MG ATCC. Conditions: U-87 MG.
In test [5] the test system is U-87MG ATCC. The description is as §3. Conditions: TDE = time-dependent effect. In kind it is functional, cell-based.
The subject of test [6] is U-87MG ATCC. As to the kind of experiment: Cytotoxicity against human U87MG cells assessed as reduction in cell viability by Z2 coulter counter method. The format is functional, cell-based. Conditions: TDE = time-dependent effect.
Test [7] in a line: as §1. The format is functional, cell-based, U-87MG ATCC. The note with it: U-87 MG.
The subject of test [8] is HeLa. As to the kind of experiment: Cytotoxicity against human HeLa cells assessed as reduction in cell viability after 24 hrs by Z2 coulter counter method. In kind it is functional, cell-based.
The nature of test [9]: Cytotoxicity against human HN13 cells assessed as reduction in cell viability after 24 hrs by Z2 coulter counter method. Conditions: WSU-HN13, 24 h. The format is functional, cell-based.
Test [10] concerns MDA-MB-231. As to the kind of experiment: Cytotoxicity against human MDA-MB-231 cells assessed as reduction in cell viability after 24 hrs by Z2 coulter counter method. The format is functional, cell-based. The note with it: MDA-MB-231, 24 h.
For test [11], the system named is MCF7. Put plainly: Cytotoxicity against human MCF7 cells assessed as reduction in cell viability after 24 hrs by Z2 coulter counter method. In kind it is functional, cell-based. Conditions: MCF7, 24 h.
In test [12] the test system is HeLa. Put plainly: Cytotoxicity against human HeLa cells assessed as reduction in cell viability after 48 hrs by Z2 coulter counter method. In kind it is functional, cell-based.
Test [13] in a line: Cytotoxicity against human HN13 cells assessed as reduction in cell viability after 48 hrs by Z2 coulter counter method. The note with it: WSU-HN13, 48 h. In kind it is functional, cell-based.
The test system of test [14] is MDA-MB-231. As to the kind of experiment: Cytotoxicity against human MDA-MB-231 cells assessed as reduction in cell viability after 48 hrs by Z2 coulter counter method. The note with it: MDA-MB-231, 48 h. The format is functional, cell-based.
The test system of test [15] is MCF7. Put plainly: Cytotoxicity against human MCF7 cells assessed as reduction in cell viability after 48 hrs by Z2 coulter counter method. In kind it is functional, cell-based. Conditions: MCF7, 48 h.
In test [16] the test system is HeLa. Put plainly: Cytotoxicity against human HeLa cells assessed as reduction in cell viability after 72 hrs by Z2 coulter counter method. The format is functional, cell-based.
The nature of test [17]: Cytotoxicity against human HN13 cells assessed as reduction in cell viability after 72 hrs by Z2 coulter counter method. In kind it is functional, cell-based. Conditions: WSU-HN13, 72 h.
Test [18] deals with MDA-MB-231. Put plainly: Cytotoxicity against human MDA-MB-231 cells assessed as reduction in cell viability after 72 hrs by Z2 coulter counter method. The format is functional, cell-based. The note with it: MDA-MB-231, 72 h.
For test [19], the system named is MCF7. Put plainly: Cytotoxicity against human MCF7 cells assessed as reduction in cell viability after 72 hrs by Z2 coulter counter method. In kind it is functional, cell-based. Conditions: MCF7, 72 h.

For orientation: IC50 means the point on the concentration scale where inhibition reaches its midpoint. Consider `O=c1[nH]cc(F)c(=O)[nH]1` [FLUOROURACIL], for which the Activity result with U-87MG ATCC [1], in the test on U-87MG ATCC [3], in the test with U-87MG ATCC [5] and in the test on U-87MG ATCC [6] was “tde” each time. Besides, the IC50 in [2] is 220 µM; in test [4] it was 18.2 µM.
For the molecule `O=C(Nc1ccc(Nc2ccc(OC3CCNCC3)cc2)cc1)c1cccc(-n2nc(C(=O)Nc3ccc(Nc4ccc(OC5CCNCC5)cc4)cc3)c3c2C(=O)NCC3)c1`, the IC50 in test [7] is 60 µM; in the test with HeLa [8], 17.6 µM; in test [9], 30.6 µM; in the test on MDA-MB-231 [10] it was 55 µM; in the test with MCF7 [11], 78.3 µM; in the test with HeLa [12] it was 17.6 µM. Moreover, the 50% inhibitory concentration (IC50) worked out at 44.4 µM in test [2]; 27 µM in [13]; 42.6 µM in the test on MDA-MB-231 [14]; 32.9 µM with MCF7 [15]; 16 µM in the test on HeLa [16]; 33.5 µM in test [4]. Also, the IC50 in test [17] came out at 26.1 µM; in the test with MDA-MB-231 [18], 28.9 µM; in the test on MCF7 [19], 10.6 µM.
On to `Cn1c(=O)n(-c2ccc(C(C)(C)C#N)cc2)c2c3cc(-c4cnc5ccccc5c4)ccc3ncc21` [DACTOLISIB], for which the values for the IC50 in [7], in test [2] and in [4] were 825 µM, 0.6 µM and 0.16 µM, respectively. The Activity entry in the test with U-87MG ATCC [1], in the test on U-87MG ATCC [3], with U-87MG ATCC [5] and with U-87MG ATCC [6] was “tde” in each case.
